According to publication PMC6133161, “Thiazoles with cyclopropyl fragment as antifungal, anticonvulsant, and anti-Toxoplasma gondii agents: synthesis, toxicity evaluation, and molecular docking study” (Medicinal Chemistry Research, 2018):

Tests used:
motor coordination = assay: Rotarod test; format: in vivo, mouse; conditions: mice, 100 mg/kg, 60 min pretreatment; 6, 18 and 24 rpm
Protocol: For in vivo tests that assessed anticonvulsant properties of the test compounds 3a–3j adult male Albino Swiss (CD-1) mice weighing between 18 and 22 g were used. The animals were housed in groups of ten mice per cage at room temperature of 22 ± 2 °C, under light/dark (12:12) cycle. The animals had free access to food and tap water before the experiments. The ambient temperature of the experimental room and humidity (50 ± 10%) were kept consistent throughout all the tests. For behavioral experiments the animals were selected randomly. Each experimental group consisted of 4–8 animals/dose. The experiments were performed between 9 AM and 2 PM. Immediately after the in vivo assay the animals were euthanized by cervical dislocation. All procedures were approved by the Local Ethics Committee of the Jagiellonian University in Krakow (34/2018, 1.02.2018)) and the treatment of animals was in full accordance with ethical standards laid down in respective Polish and EU regulations (Directive No. 86/609/EEC). For in vivo tests the compounds 3a–3j were prepared in 1% Tween 80 solution (POCH, Poland) and they were administered by the intraperitoneal route. Control mice received 1% Tween 80. Pentylenetetrazole (PTZ), pilocarpine hydrochloride and scopolamine butylbromide were provided by Sigma Aldrich (Poland). For the tests they were prepared in 0.9% saline (Polfa Kutno, Poland). PTZ and pilocarpine were administered 60 min after the test compound or vehicle. To assess anticonvulsant properties of the test compounds anticonvulsant screening was conducted. Four assays were used: PTZ, maximal electroshock seizure (MES), 6-Hz and pilocarpine tests. In these assays the dose of 100 mg/kg was chosen as a starting dose. If it turned out to be effective, a lower dose (30 mg/kg) was also tested. The test was performed according to the method recently described (Sałat et al. [2005]). The mice were trained daily for 3 consecutive days on the rotarod apparatus (Rotarod apparatus, May Commat RR0711, Turkey; rod diameter: 2 cm) rotating at a constant speed of 18 rotations per minute (rpm). During each training session, the animals were placed on a rotating rod for 3 min with an unlimited number of trials. The proper experimentation was conducted 24 h after the final training trial. […] Motor impairments, defined as the inability to remain on the rotating rod for 1 min were measured and mean time spent on the rod was counted in each experimental group.

[1] = system: all tested strains of Candida; assay: Antifungal screening, all strains; format: cell-based
Text: The examined compounds 3a–3j were screened in vitro for antibacterial and antifungal activities using the broth microdilution method according to European Committee on Antimicrobial Susceptibility Testing (EUCAST) (EUCAST [2003]) and Clinical and Laboratory Standards Institute guidelines (CLSI [2012]) against reference strains of microorganisms from American Type Culture Collection (ATCC), including fungi belonging to yeasts (Candida albicans ATCC 2091, Candida albicans ATCC 10231, Candida parapsilosis ATCC 22019 and Candida krusei ATCC 14243).
In the study of antifungal activity of the compounds 3a–3j, 15 clinical strains of different species of yeasts from Candida species, namely C. albicans, C. dubliniensis C. famata, C. inconspicua, C. krusei, C. tropicalis, C. glabrata, C. lambica, C. kefyr, C. lusitaniae, C. parapsilosis, C. guilliermondii, C. lusitaniae, C. pulcherrima and C. sake were also used. […] After incubation, the MIC was assessed spectrophotometric as the lowest concentration of the samples showing complete fungal growth inhibition. […] MFC was determined by removing the culture using for MIC determinations from each well and spotting onto appropriate agar medium. […] The lowest compounds concentration with no visible growth observed was assessed as a fungicidal concentration. […]

| Structure (SMILES) | motor coordination (time spent on rotarod) (motor coordination) | antifungal activity [1] |
| --- | --- | --- |
| Clc1ccc(-c2csc(N/N=C/C3CC3)n2)cc1 [Compound 3c, (E)-4-(4-Chlorophenyl)-2-(2-(cyclopropylmethylene)hydrazinyl)thiazole] | None of these compounds impaired motor skills |  |
| FC(F)(F)c1ccc(-c2csc(N/N=C/C3CC3)n2)cc1 [Compound 3e, (E)-2-(2-(Cyclopropylmethylene)hydrazinyl)-4-(4-(trifluoromethyl)phenyl)thiazole] | None of these compounds impaired motor skills | inactive |
| COc1ccc(-c2csc(N/N=C/C3CC3)n2)cc1 [Compound 3f, (E)-2-(2-(Cyclopropylmethylene)hydrazinyl)-4-(4-methoxyphenyl)thiazole] | None of these compounds impaired motor skills |  |
| [N-]=[N+]=Nc1ccc(-c2csc(N/N=C/C3CC3)n2)cc1 [Compound 3i, (E)-4-(4-Azidophenyl)-2-(2-(cyclopropylmethylene)hydrazinyl)thiazole] | None of these compounds impaired motor skills |  |
